Experimental findings from publication PMC10350924, “Design, Synthesis, and Pharmacological Characterization of a Potent Soluble Epoxide Hydrolase Inhibitor for the Treatment of Acute Pancreatitis” (Journal of Medicinal Chemistry, 2023) are described below.

“And” between values parts separate entries of the source, which are not always exact repeats. Equal entries are not always repeated.

One data set is described as follows: Mouse plasma stability. In kind it is in vitro ADME. Conditions: 37 °C, 5 μM. As for the experimental part: Mouse plasma is warmed to 37 °C for 10 min, mixed, and centrifuged to pellet any aggregated protein. Biotransformation is initiated by adding 1.25 μL of compound solution (5 μM final incubation concentration), and the incubation was carried out at 37 °C for 120 min in a Thermomixer comfort (Eppendorf, Hamburg, Germany). At each specified time point (0, 60, and 120 min), compounds were removed into 200 μL of ice-cold methanol containing IS to stop degradation. Finally, the concentration of the test compound was quantified by LC-MS. All experiments were performed in triplicate. Procaine (low stability) and procainamide (high stability) were used as controls.

Data set [1] addresses T1, 5-LOX (Homo sapiens, UniProt P09917).
T1 sequence (P09917 1-674): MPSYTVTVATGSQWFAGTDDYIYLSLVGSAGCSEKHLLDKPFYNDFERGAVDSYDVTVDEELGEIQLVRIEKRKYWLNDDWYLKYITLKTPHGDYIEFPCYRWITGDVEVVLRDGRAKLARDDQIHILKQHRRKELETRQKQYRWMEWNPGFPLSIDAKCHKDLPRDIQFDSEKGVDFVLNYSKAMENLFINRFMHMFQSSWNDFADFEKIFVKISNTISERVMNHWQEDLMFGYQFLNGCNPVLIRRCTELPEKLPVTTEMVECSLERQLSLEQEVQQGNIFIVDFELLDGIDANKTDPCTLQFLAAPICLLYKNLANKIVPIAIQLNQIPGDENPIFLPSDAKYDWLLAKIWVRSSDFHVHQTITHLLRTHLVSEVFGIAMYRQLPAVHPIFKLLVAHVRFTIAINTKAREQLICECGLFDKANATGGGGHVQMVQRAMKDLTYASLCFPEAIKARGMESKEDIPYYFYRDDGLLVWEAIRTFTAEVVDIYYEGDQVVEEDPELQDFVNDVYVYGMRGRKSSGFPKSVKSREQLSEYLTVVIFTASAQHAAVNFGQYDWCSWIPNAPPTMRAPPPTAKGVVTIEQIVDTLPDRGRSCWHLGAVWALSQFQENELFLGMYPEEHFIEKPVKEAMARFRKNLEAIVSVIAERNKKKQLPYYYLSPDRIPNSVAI
Nature of the data set: Cell-free 5-LOX activity assay. The class given is biochemical. Also noted: made in house; host or cells: Escherichia coli Bl21 (DE3). Conditions: human isolated 5-LOX. As for the experimental part:
Human recombinant 5-LOX was expressed in Escherichia coli Bl21 (DE3) cells that were transformed with the plasmid pT3-5LO (wt 5-LOX) and purified on an adenosine triphosphate (ATP)-agarose column by affinity chromatography.[40],[41] In a first step, E. coli was lysed in 50 mM triethanolamine/HCl pH 8.0 with ethylenediamine tetraacetic acid (EDTA) (5 mM), soybean trypsin inhibitor (60 μg/mL), phenylmethanesulfonyl fluoride (1 mM), dithiothreitol (1 mM), and lysozyme (1 mg/mL) and sonicated 3 times for 15 s. The homogenate was centrifuged at 40,000g for 20 min at 4 °C. The supernatant was transferred to an ATP-agarose column (Sigma-Aldrich, Deisenhofen, Germany), which was sequentially washed with phosphate-buffered saline (PBS) pH 7.4, 1 mM EDTA, 50 mM phosphate buffer pH 7.4, 0.5 M NaCl, 1 mM EDTA, and finally 50 mM phosphate buffer pH 7.4 plus 1 mM EDTA. The enzyme was eluted with 50 mM phosphate buffer pH 7.4, 1 mM EDTA, and 20 mM ATP.
5-LOX product formation was started by the addition of 20 μM arachidonic acid (Sigma-Aldrich) and CaCl2 (2 mM) and stopped by the addition of an equal volume of ice-cold methanol containing PGB1 (200 ng) as internal standard after 10 min at 37 °C.

The target of data set [2] is T1, 5-LOX. Briefly: 5-LOX product formation in human activated PMNL (A23187). The class given is cell-based. Conditions: for remaining activity at 10 µM: read-out: 5-LOX residual activity in PMNL (%) at 10 μM; for remaining activity: PMNL, read-out: 5-LO residual activity in PMNL (%). Set-up: Freshly isolated PMNL (5 × 10^6) suspended in PBS pH 7.4 with 1 mg/mL glucose were preincubated with the test compounds; endogenous in cells; host or cells: human PMNL from donor blood; remaining activity: dose or concentration left out as unconfirmed. As for the experimental part:
Human PMNL were freshly isolated from leukocyte concentrates that were obtained from the Institute for Transfusion Medicine of the University Hospital Jena (Germany). […] These volunteers regularly donated blood (every 8–12 weeks) and were physically inspected by a clinician. […] Leukocytes were concentrated by centrifugation (4000g/20 min/20 °C) of freshly withdrawn blood. […] PMNL were obtained from the cell pellet. […] The reaction was stopped with an equal volume of methanol containing PGB1 (200 ng) as internal standard. Major 5-LOX products (all-trans isomers of LTB and 5-HETE, and additionally LTB4) were extracted and analyzed by RP-HPLC as described for the determination of cell-free 5-LOX activity.

For the compound `O=C(Nc1ccc2c(c1)CCN2Cc1ccc(F)cc1)NC12C[C@H]3C[C@@H](C1)C[C@@H](C2)C3` [Compound 6, 1-((3S,5S,7S)-Adamantan-1-yl)-3-(1-(4-fluorobenzyl)indolin-5-yl)urea], the mouse plasma stability is reported as 97.3 ± 0.7% in “Mouse plasma stability” (1.0 h) and 100.7 ± 2.3% in the data set “Mouse plasma stability” (2.0 h). Further, the IC50 (usually the concentration at which inhibition is half-maximal) is 71 ± 16 nM against 5-LOX [1]; 240 nM and 243 nM on 5-LOX [2] (human activated PMNL). In addition, the remaining activity at 10 µM on 5-LOX [2] (human activated PMNL) is 35.4 ± 3.1%. For the same compound, the remaining activity at 5-LOX [2] came out at 35.4 ± 3.1%.

Consider `O=C(NCC12C[C@H]3C[C@@H](C1)C[C@@H](C2)C3)Nc1ccc2c(ccn2Cc2ccc(F)cc2)c1` [Compound 27, 1-(((3R,5R,7R)-Adamantan-1-yl)methyl)-3-(1-(4-fluorobenzyl)-1H-indol-5-yl)urea], for which the results for the mouse plasma stability in “Mouse plasma stability” (1.0 h) and in “Mouse plasma stability” (2.0 h) were 100.3 ± 0.2% and 102.2 ± 4.8%, respectively. Further, the IC50 against 5-LOX [1] is > 1000 nM. Moreover, on 5-LOX [2] (human activated PMNL), the remaining activity at 10 µM came out at 59.4 ± 6.7%. Besides, the remaining activity on 5-LOX [2] came out at 59.4 ± 6.7%.

With `CC(C)c1ccc(Cn2ccc3cc(NC(=O)NCC45C[C@H]6C[C@@H](C4)C[C@@H](C5)C6)ccc32)cc1` [Compound 28, 1-(((3R,5R,7R)-Adamantan-1-yl)methyl)-3-(1-(4-isopropylbenzyl)-1H-indol-5-yl)urea], the mouse plasma stability in the data set “Mouse plasma stability” (1.0 h) stood at 98.4 ± 3.3%; in the data set “Mouse plasma stability” (2.0 h), 101.3 ± 3.8%. In addition, the IC50 at 5-LOX [1] was > 1000 nM. In addition, the remaining activity at 10 µM on 5-LOX [2] (human activated PMNL) stood at 93.6 ± 4.8%. Also, the remaining activity on 5-LOX [2] turned out to be 93.6 ± 4.8%.

`O=C(NCC12C[C@H]3C[C@@H](C1)C[C@@H](C2)C3)Nc1ccc2c(ccn2CCc2ccc(F)cc2)c1` [Compound 30, 1-(((3R,5R,7R)-Adamantan-1-yl)methyl)-3-(1-(4-fluorophenethyl)-1H-indol-5-yl)urea]: the results for the mouse plasma stability in “Mouse plasma stability” (1.0 h) and in “Mouse plasma stability” (2.0 h) were 96.2 ± 3.4% and 97.0 ± 2.3%, respectively. Also, the IC50 against 5-LOX [1] was > 1000 nM. Also, on 5-LOX [2] (human activated PMNL), the remaining activity at 10 µM came out at 65.1 ± 6.2%. Besides, at 5-LOX [2], the remaining activity stood at 65.1 ± 6.2%.

`O=C(NCC12C[C@H]3C[C@@H](C1)C[C@@H](C2)C3)Nc1ccc2c(ccn2C(=O)c2ccc(F)cc2)c1` [Compound 36, 1-(((3R,5R,7R)-Adamantan-1-yl)methyl)-3-(1-(4-fluorobenzoyl)-1H-indol-5-yl)urea]: the mouse plasma stability in “Mouse plasma stability” (1.0 h) came to 98.2 ± 2.0%; in the data set “Mouse plasma stability” (2.0 h), 96.2 ± 2.8%. Besides, at 5-LOX [1], the IC50 was > 1000 nM. Moreover, on 5-LOX [2] (human activated PMNL), the remaining activity at 10 µM is 58.1 ± 5.5%. Moreover, the remaining activity on 5-LOX [2] is 58.1 ± 5.5%.
